This note sets out measurements from patent publication US20180290138A1, “MICROFLUIDIC CHIP FOR SCREENING ANTICANCER DRUG RESISTANT CELLS AND USE THEREOF” (RESEARCH & BUSINESS FOUNDATION SUNGKYUNKWAN UNIVERSITY, priority 2015, published 2018).

Each structure is given as a SMILES string.

Test [1] has as its system U87 cells. In words: Evaluation of anticancer drug resistance: cell viability with doxorubicin, U87 cells (WT cells). The test is classed as cell-based. As to conditions: Homo sapiens, U-87 MG; U87 cells (WT cells) cultured in general medium; 72 h culture; living cell count; non-linear regression. The method, then:
(§1) 3,000 cells (U87 and U87-DG cells) were seeded into a 96-well plate in 200 μl of an MEM medium containing doxorubicin at various concentrations (0, 0.005, 0.01, 0.02, 0.05, 0.1, 0.2, 0.5, 0.75, and 1 μM). After seventy-two hours of culturing, the number of living cells in each well was calculated. Cell viability was calculated by dividing the number of living cells in a doxorubicin-contained well by the number of living cells in a doxorubicin-free well. After plotting a concentration of doxorubicin with respect to cell viability, IC50 was estimated through non-linear regression analysis using Graphpad Prism (GraphPad Software, Inc., La Jolla, Calif. USA).

The test system of test [2] is U87-DG cells. Description: Evaluation of anticancer drug resistance: cell viability with doxorubicin, U87-DG cells (chip cells). Conditions: Homo sapiens; U87-DG cells (chip cells) cultured with Death galaxy chip under doxorubicin gradient; 72 h culture; living cell count; non-linear regression. The test is classed as cell-based.
Excerpt: In the Death galaxy chip, for 7 days, U87 cells derived from human primary glioblastoma were exposed to an anticancer drug such as doxorubicin according to a concentration gradient, and a hexagonal microchamber array was removed from a surface of the living cells (U87-DG cells)-attached cell culture plate. The inventors trypsinized the U87-DG cells to analyze the characteristic of phenotypes thereof, collected the cells, and transferred them to a new culture plate to culture the cells in a normal growth medium (MEM) for one week.
as §1

As to `COc1cccc2c1C(=O)c1c(O)c3c(c(O)c1C2=O)C[C@@](O)(C(=O)CO)C[C@@H]3O[C@H]1C[C@H](N)[C@H](O)[C@H](C)O1` [doxorubicin], the 50% inhibitory concentration (IC50) is 50 nM in test [1] and 1470 nM in test [2].

By IC50 is commonly meant the midpoint of a concentration-inhibition curve. Read a low IC50 as inhibition by little substance.
